Laboratory results as given in patent publication US9145346B1, “Process for 2,2,4,4-tetramethylcyclobutane-1,3-diol crystallization” (Eastman Chemical Company, priority 2014, dated 2015).

Assay: Solubility (saturated concentration) of cis-TMCD and trans-TMCD in various solvents, by gas chromatography
Assay type: physicochemical
Method: All concentrations were measured by gas chromatography. Water concentration was measured by Karl Fischer titrations.
The solubility of cis-TMCD and trans-TMCD in various solvents was determined by charging cis-TMCD, trans-TMCD, and the solvent or solvents of interest into a 120 ml jacketed glass vessel. The vessel was equipped with a stir bar in order to provide mixing and the jacket was used to control the temperature of the vessel contents. The vessel was equipped with charging and sampling ports on top of the vessel.
The slurry was allowed to stand for a time sufficient for the solids to saturate the solvent at the desired temperature. At that time, a sample of the solution was withdrawn from the cell using a fritted pipette so as to remove only the liquid phase. The sample was analyzed for cis-TMCD and trans-TMCD isomer content. These values represent the saturated concentration of each isomer at the sampling temperature.
After this, the cell contents were heated to the next desired temperature and the contents were held for another time interval sufficient to allow the slurry to equilibrate. A sample was then taken of the solution and analyzed. Following this procedure, solubility data was collected up to the final desired temperature.
The reported solubility of each isomer at a given temperature for a given solvent is expressed as a weight % relative to the saturated concentration of the isomer at the highest temperature reported for a given solvent.

Relative solubility (2-Ethylhexanol, 0.7° C., relative to 89.8° C.): 10% relative wt %
Relative solubility (2-Ethylhexanol, 12.5° C., relative to 89.8° C.): 16% relative wt %
Relative solubility (2-Ethylhexanol, 24.7° C., relative to 89.8° C.): 21% relative wt %
Relative solubility (2-Ethylhexanol, 40.0° C., relative to 89.8° C.): 29% relative wt %
Relative solubility (2-Ethylhexanol, 49.9° C., relative to 89.8° C.): 37% relative wt %
Relative solubility (2-Ethylhexanol, 60.2° C., relative to 89.8° C.): 46% relative wt %
Relative solubility (2-Ethylhexanol, 69.3° C., relative to 89.8° C.): 58% relative wt %
Relative solubility (2-Ethylhexanol, 79.3° C., relative to 89.8° C.): 76% relative wt %
Relative solubility (2-Ethylhexanol, 89.8° C., relative to 89.8° C.): 100% relative wt %
Relative solubility (2-Ethylhexyl Acetate, 5.9° C., relative to 79.4° C.): 5% relative wt %
Relative solubility (2-Ethylhexyl Acetate, 15.5° C., relative to 79.4° C.): 8% relative wt %
Relative solubility (2-Ethylhexyl Acetate, 25.1° C., relative to 79.4° C.): 12% relative wt %
Relative solubility (2-Ethylhexyl Acetate, 40.5° C., relative to 79.4° C.): 22% relative wt %
Relative solubility (2-Ethylhexyl Acetate, 49.8° C., relative to 79.4° C.): 31% relative wt %
Relative solubility (2-Ethylhexyl Acetate, 49.9° C., relative to 79.4° C.): 32% relative wt %
Relative solubility (2-Ethylhexyl Acetate, 60.5° C., relative to 79.4° C.): 47% relative wt %
Relative solubility (2-Ethylhexyl Acetate, 70.3° C., relative to 79.4° C.): 74% relative wt %
Relative solubility (2-Ethylhexyl Acetate, 79.4° C., relative to 79.4° C.): 100% relative wt %
Relative solubility (2-Ethylhexyl Acetate, −5.0° C., relative to 79.4° C.): 4% relative wt %
Relative solubility (CHDM, 69.0° C., relative to 106.9° C.): 27% relative wt %
Relative solubility (CHDM, 79.2° C., relative to 106.9° C.): 58% relative wt %
Relative solubility (CHDM, 88.9° C., relative to 106.9° C.): 69% relative wt %
Relative solubility (CHDM, 95.6° C., relative to 106.9° C.): 85% relative wt %
Relative solubility (CHDM, 106.9° C., relative to 106.9° C.): 100% relative wt %
Relative solubility (Dimethyl Carbonate, 6.2° C., relative to 70.1° C.): 7% relative wt %
Relative solubility (Dimethyl Carbonate, 16.3° C., relative to 70.1° C.): 9% relative wt %
Relative solubility (Dimethyl Carbonate, 25.7° C., relative to 70.1° C.): 14% relative wt %
Relative solubility (Dimethyl Carbonate, 40.5° C., relative to 70.1° C.): 28% relative wt %
Relative solubility (Dimethyl Carbonate, 54.7° C., relative to 70.1° C.): 55% relative wt %
Relative solubility (Dimethyl Carbonate, 70.1° C., relative to 70.1° C.): 100% relative wt %
Relative solubility (Ethanol, 5.3° C., relative to 60.3° C.): 47% relative wt %
Relative solubility (Ethanol, 14.3° C., relative to 60.3° C.): 52% relative wt %
Relative solubility (Ethanol, 25.5° C., relative to 60.3° C.): 68% relative wt %
Relative solubility (Ethanol, 39.9° C., relative to 60.3° C.): 81% relative wt %
Relative solubility (Ethanol, 50.1° C., relative to 60.3° C.): 88% relative wt %
Relative solubility (Ethanol, 60.3° C., relative to 60.3° C.): 100% relative wt %
Relative solubility (Ethyl Acetate, 4.2° C., relative to 54.9° C.): 15% relative wt %
Relative solubility (Ethyl Acetate, 15.0° C., relative to 54.9° C.): 24% relative wt %
Relative solubility (Ethyl Acetate, 26.2° C., relative to 54.9° C.): 37% relative wt %
Relative solubility (Ethyl Acetate, 40.5° C., relative to 54.9° C.): 62% relative wt %
Relative solubility (Ethyl Acetate, 54.9° C., relative to 54.9° C.): 100% relative wt %
Relative solubility (Ethyl Acetate, −5.1° C., relative to 54.9° C.): 12% relative wt %
Relative solubility (Ethylene Glycol, 26.5° C., relative to 91.4° C.): 25% relative wt %
Relative solubility (Ethylene Glycol, 36.2° C., relative to 91.4° C.): 32% relative wt %
Relative solubility (Ethylene Glycol, 48.5° C., relative to 91.4° C.): 42% relative wt %
Relative solubility (Ethylene Glycol, 61.5° C., relative to 91.4° C.): 57% relative wt %
Relative solubility (Ethylene Glycol, 72.1° C., relative to 91.4° C.): 68% relative wt %
Relative solubility (Ethylene Glycol, 82.2° C., relative to 91.4° C.): 87% relative wt %
Relative solubility (Methanol, 16.9° C., relative to 41.3° C.): 86% relative wt %
Relative solubility (Methanol, 25.6° C., relative to 41.3° C.): 91% relative wt %
Relative solubility (Methanol, 41.3° C., relative to 41.3° C.): 100% relative wt %
Relative solubility (Methanol, −2.5° C., relative to 41.3° C.): 77% relative wt %
Relative solubility (Methyl Acetate, 5.9° C., relative to 49.8° C.): 15% relative wt %
Relative solubility (Methyl Acetate, 15.5° C., relative to 49.8° C.): 22% relative wt %
Relative solubility (Methyl Acetate, 25.1° C., relative to 49.8° C.): 33% relative wt %
Relative solubility (Methyl Acetate, 40.5° C., relative to 49.8° C.): 59% relative wt %
Relative solubility (Methyl Acetate, 49.8° C., relative to 49.8° C.): 100% relative wt %
Relative solubility (Methyl Acetate, −5.0° C., relative to 49.8° C.): 9% relative wt %
Relative solubility (Methyl i-Butyl Carbinol, 9.4° C., relative to 81.9° C.): 20% relative wt %
Relative solubility (Methyl i-Butyl Carbinol, 20.4° C., relative to 81.9° C.): 25% relative wt %
Relative solubility (Methyl i-Butyl Carbinol, 31.1° C., relative to 81.9° C.): 31% relative wt %
Relative solubility (Methyl i-Butyl Carbinol, 40.0° C., relative to 81.9° C.): 40% relative wt %
Relative solubility (Methyl i-Butyl Carbinol, 49.5° C., relative to 81.9° C.): 49% relative wt %
Relative solubility (Methyl i-Butyl Carbinol, 60.0° C., relative to 81.9° C.): 62% relative wt %
Relative solubility (Methyl i-Butyl Carbinol, 69.5° C., relative to 81.9° C.): 78% relative wt %
Relative solubility (Methyl i-Butyl Carbinol, 81.9° C., relative to 81.9° C.): 100% relative wt %
Relative solubility (i-Butyl Acetate, 4.8° C., relative to 90.1° C.): 5% relative wt %
Relative solubility (i-Butyl Acetate, 16.9° C., relative to 90.1° C.): 8% relative wt %
Relative solubility (i-Butyl Acetate, 25.6° C., relative to 90.1° C.): 11% relative wt %
Relative solubility (i-Butyl Acetate, 41.3° C., relative to 90.1° C.): 19% relative wt %
Relative solubility (i-Butyl Acetate, 56.2° C., relative to 90.1° C.): 32% relative wt %
Relative solubility (i-Butyl Acetate, 70.2° C., relative to 90.1° C.): 52% relative wt %
Relative solubility (i-Butyl Acetate, 90.1° C., relative to 90.1° C.): 100% relative wt %
Relative solubility (i-Butyl Acetate, −2.5° C., relative to 90.1° C.): 5% relative wt %
Relative solubility (n-Butanol, 5.9° C., relative to 60.5° C.): 46% relative wt %
Relative solubility (n-Butanol, 15.5° C., relative to 60.5° C.): 51% relative wt %
Relative solubility (n-Butanol, 25.1° C., relative to 60.5° C.): 59% relative wt %
Relative solubility (n-Butanol, 40.5° C., relative to 60.5° C.): 73% relative wt %
Relative solubility (n-Butanol, 49.8° C., relative to 60.5° C.): 86% relative wt %
Relative solubility (n-Butanol, 49.9° C., relative to 60.5° C.): 86% relative wt %
Relative solubility (n-Butanol, 60.5° C., relative to 60.5° C.): 100% relative wt %
Relative solubility (n-Butanol, −5.0° C., relative to 60.5° C.): 41% relative wt %
Relative solubility (n-Butyl Propionate, 6.5° C., relative to 91.9° C.): 4% relative wt %
Relative solubility (n-Butyl Propionate, 16.8° C., relative to 91.9° C.): 7% relative wt %
Relative solubility (n-Butyl Propionate, 27.7° C., relative to 91.9° C.): 10% relative wt %
Relative solubility (n-Butyl Propionate, 41.7° C. (sample 4), relative to 91.9° C.): 17% relative wt %
Relative solubility (n-Butyl Propionate, 41.7° C. (sample 5), relative to 91.9° C.): 18% relative wt %
Relative solubility (n-Butyl Propionate, 52.0° C., relative to 91.9° C.): 27% relative wt %
Relative solubility (n-Butyl Propionate, 61.5° C., relative to 91.9° C.): 37% relative wt %
Relative solubility (n-Butyl Propionate, 69.1° C., relative to 91.9° C.): 50% relative wt %
Relative solubility (n-Butyl Propionate, 80.7° C., relative to 91.9° C.): 74% relative wt %
Relative solubility (n-Butyl Propionate, 91.9° C., relative to 91.9° C.): 100% relative wt %
Relative solubility (n-Propyl Propionate, 7.0° C., relative to 72.2° C.): 10% relative wt %
Relative solubility (n-Propyl Propionate, 17.1° C., relative to 72.2° C.): 14% relative wt %
Relative solubility (n-Propyl Propionate, 26.7° C., relative to 72.2° C.): 21% relative wt %
Relative solubility (n-Propyl Propionate, 37.4° C., relative to 72.2° C.): 30% relative wt %
Relative solubility (n-Propyl Propionate, 42.4° C., relative to 72.2° C.): 34% relative wt %
Relative solubility (n-Propyl Propionate, 52.2° C., relative to 72.2° C.): 50% relative wt %
Relative solubility (n-Propyl Propionate, 62.9° C., relative to 72.2° C.): 72% relative wt %
Relative solubility (n-Propyl Propionate, 72.2° C., relative to 72.2° C.): 100% relative wt %
SMILES: CC1(C)[C@H](O)C(C)(C)[C@@H]1O [cis-TMCD, cis-2,2,4,4-tetramethylcyclobutane-1,3-diol]
